Assay results taken from PubChem BioAssay (NCI).
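Following 48 hours of exposure in 96-well plates, responses at five concentrations were used to interpolate endpoints linearly. GI50 marks 50% less growth. TGI: concentration producing complete growth inhibition.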

Key:
Assay in all cases: DTP human tumour cell line panel, 48 h
HCC-2998 colon = test system: HCC-2998 colon
OVCAR-8 ovarian = test system: OVCAR-8 ovarian
OVCAR-4 ovarian = test system: OVCAR-4 ovarian
COLO 205 colon = test system: COLO 205 colon
SF-539 CNS = test system: SF-539 CNS
SF-295 CNS = test system: SF-295 CNS
NCI-H460 lung = test system: NCI-H460 lung
LOX IMVI melanoma = test system: LOX IMVI melanoma
HS 578T breast = test system: HS 578T breast
T-47D breast = test system: T-47D breast

`COc1cc2c(OC)cc1CSCc1sc(C)c(c1Br)CSC2` gave a TGI (HCC-2998 colon) of over 100 µM, a TGI (OVCAR-8 ovarian) of over 100 µM and a TGI (OVCAR-4 ovarian) of over 100 µM. For the same compound, the TGI (COLO 205 colon) was over 100 µM, the TGI (SF-539 CNS) was over 100 µM and the TGI (SF-295 CNS) was over 100 µM. The TGI (NCI-H460 lung) was over 100 µM and the TGI (LOX IMVI melanoma) was over 100 µM.
Work on `Cc1cccc(C)c1NC(=O)C(=O)C(C(=O)c1ccccc1-c1ccccc1)C1OC(=O)c2ccccc21` (centres undefined) yielded a TGI (HCC-2998 colon) of 29.7 µM, a TGI (OVCAR-8 ovarian) of over 100 µM and a TGI (COLO 205 colon) of 37.9 µM. It also gave a TGI (SF-539 CNS) of 28.3 µM, a TGI (SF-295 CNS) of over 100 µM and a TGI (NCI-H460 lung) of 78.2 µM. The TGI (LOX IMVI melanoma) was 45 µM.
Compound `S=c1[nH]c(=S)c2nnn(-c3ccccc3)c2[nH]1` has a TGI (HCC-2998 colon) of over 100 µM, a TGI (OVCAR-8 ovarian) of over 100 µM and a TGI (COLO 205 colon) of over 100 µM. The TGI (SF-539 CNS) was over 100 µM, the TGI (NCI-H460 lung) was over 100 µM and the TGI (LOX IMVI melanoma) was over 100 µM.
For `N#CC(C(=O)C(=O)Nc1ccc(Cl)cc1)c1ccccc1` (centres undefined), the TGI (HCC-2998 colon) was over 100 µM, the TGI (OVCAR-4 ovarian) was over 100 µM and the TGI (COLO 205 colon) was over 100 µM. The TGI (SF-539 CNS) was over 100 µM, the TGI (SF-295 CNS) was over 100 µM and the TGI (NCI-H460 lung) was over 100 µM. The TGI (LOX IMVI melanoma) was over 100 µM.
`COc1c[c]([Hg][O]C(C)=O)c(OC)c(NC(=O)CC(C)=O)[c]1[Hg][O]C(C)=O` was tested, and the GI50 (HCC-2998 colon) was 15.8 µM, the TGI (HCC-2998 colon) was 30.1 µM and the GI50 (OVCAR-8 ovarian) was 6.71 µM. It also gave a TGI (OVCAR-8 ovarian) of over 19.9 µM, a GI50 (OVCAR-4 ovarian) of 15.9 µM and a TGI (OVCAR-4 ovarian) of 30 µM. For the same compound, the GI50 (COLO 205 colon) was 2.37 µM, the GI50 (SF-539 CNS) was 12.6 µM and the TGI (SF-539 CNS) was 28.1 µM. For the same compound, the GI50 (SF-295 CNS) was over 41.7 µM, the TGI (SF-295 CNS) was over 55.8 µM and the GI50 (NCI-H460 lung) was 16.3 µM. For the same compound, the TGI (NCI-H460 lung) was 39 µM.
Work on `O=C1OCC2C1C1c3ccccc3C(O)c3ccccc3C21` (centres undefined) yielded a TGI (HCC-2998 colon) of over 100 µM, a TGI (OVCAR-8 ovarian) of over 100 µM and a TGI (OVCAR-4 ovarian) of over 100 µM. It also gave a TGI (COLO 205 colon) of over 100 µM, a TGI (SF-539 CNS) of over 100 µM and a TGI (SF-295 CNS) of over 100 µM. It also gave a TGI (NCI-H460 lung) of over 100 µM and a TGI (LOX IMVI melanoma) of over 100 µM.
`COc1ccc(CCNC(=O)c2ccc(NC3=C(Cl)C(=O)N(Cc4ccccc4)C3=O)cc2)cc1OC` showed a GI50 (OVCAR-8 ovarian) of 11.9 µM, a TGI (OVCAR-8 ovarian) of over 100 µM and a GI50 (OVCAR-4 ovarian) of over 100 µM. The TGI (OVCAR-4 ovarian) was over 100 µM, the GI50 (COLO 205 colon) was 3.94 µM and the TGI (COLO 205 colon) was over 100 µM. It also gave a GI50 (SF-539 CNS) of 23.9 µM, a TGI (SF-539 CNS) of 70.5 µM and a GI50 (HS 578T breast) of 4.62 µM. The TGI (HS 578T breast) was over 100 µM, the GI50 (T-47D breast) was 5.31 µM and the TGI (T-47D breast) was over 100 µM. The GI50 (SF-295 CNS) was 29.4 µM, the TGI (SF-295 CNS) was over 100 µM and the GI50 (NCI-H460 lung) was 32 µM. It also gave a TGI (NCI-H460 lung) of over 100 µM.
For `CC(=O)[O][Ga]([Br])[O]C(C)=O`, the GI50 (OVCAR-8 ovarian) was over 100 µM, the TGI (OVCAR-8 ovarian) was over 100 µM and the GI50 (OVCAR-4 ovarian) was over 100 µM. It also gave a TGI (OVCAR-4 ovarian) of over 100 µM, a GI50 (COLO 205 colon) of over 100 µM and a TGI (COLO 205 colon) of over 100 µM. The GI50 (SF-539 CNS) was over 100 µM, the TGI (SF-539 CNS) was over 100 µM and the GI50 (SF-295 CNS) was over 100 µM. The TGI (SF-295 CNS) was over 100 µM, the GI50 (NCI-H460 lung) was over 100 µM and the TGI (NCI-H460 lung) was over 100 µM. For the same compound, the GI50 (LOX IMVI melanoma) was over 100 µM and the TGI (LOX IMVI melanoma) was over 100 µM.
In the case of `COC(=O)[C@H]1C=C[C@@H](C)n2c(=O)c3cc4ccccc4cc3c(=O)n21`, the TGI (HCC-2998 colon) is reported as over 100 µM, the TGI (OVCAR-8 ovarian) is reported as over 100 µM and the TGI (COLO 205 colon) is reported as over 100 µM. For the same compound, the TGI (SF-539 CNS) was over 100 µM, the TGI (SF-295 CNS) was over 100 µM and the TGI (NCI-H460 lung) was over 100 µM. The TGI (LOX IMVI melanoma) was over 100 µM.
With `NCCSc1nc(-c2ccccc2)c(-c2ccccc2)o1` the TGI (OVCAR-8 ovarian) was over 100 µM, the TGI (OVCAR-4 ovarian) was over 100 µM and the TGI (COLO 205 colon) was over 100 µM. The TGI (SF-539 CNS) was over 100 µM, the TGI (HS 578T breast) was over 100 µM and the TGI (T-47D breast) was over 100 µM. It also gave a TGI (SF-295 CNS) of over 100 µM, a TGI (NCI-H460 lung) of over 100 µM and a TGI (LOX IMVI melanoma) of over 100 µM.
In the case of `O=CN1CCN(CC(O)CN2CCCCC2)CC1` (centres undefined), the TGI (OVCAR-8 ovarian) is reported as over 100 µM, the TGI (OVCAR-4 ovarian) is reported as over 100 µM and the TGI (COLO 205 colon) is reported as over 100 µM. For the same compound, the TGI (HS 578T breast) was over 100 µM, the TGI (T-47D breast) was over 100 µM and the TGI (SF-295 CNS) was over 100 µM. For the same compound, the TGI (LOX IMVI melanoma) was over 100 µM.
Work on `CC(C)N(CCn1c2c3ccccc3ccc2c2oc(=O)c3ccccc3c21)C(C)C` yielded a TGI (OVCAR-8 ovarian) of over 100 µM, a TGI (OVCAR-4 ovarian) of over 100 µM and a TGI (COLO 205 colon) of over 100 µM. For the same compound, the TGI (SF-539 CNS) was over 74.1 µM, the TGI (SF-295 CNS) was over 95.1 µM and the TGI (NCI-H460 lung) was over 100 µM. The TGI (LOX IMVI melanoma) was over 100 µM.
